From publication PMC5862592, “CDK8/19 inhibition induces premature G1/S transition and ATR-dependent cell death in prostate cancer cells” (Oncotarget, 2018)
Read-outs that look alike come from different tables or passages of the source.

Experiments:
Test in all cases: biochemical
Design in all cases: KINOMEscan active site-directed competition binding assay (DiscoveRx), 456 kinases, per cent of control at 300 nM
Settings in all cases: read-out: Percent of Control (%)
DAPK3 = DAPK3 (Homo sapiens, UniProt O43293)
In short: (§1)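 Active site-directed competition binding (KINOMEscan) across a 456-kinase panel, compounds tested at 300 nmol/L.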

YES = target: T1, YES (Homo sapiens, UniProt P07947)
T1 construct: gene YES1
T1 sequence (P07947 whole entry): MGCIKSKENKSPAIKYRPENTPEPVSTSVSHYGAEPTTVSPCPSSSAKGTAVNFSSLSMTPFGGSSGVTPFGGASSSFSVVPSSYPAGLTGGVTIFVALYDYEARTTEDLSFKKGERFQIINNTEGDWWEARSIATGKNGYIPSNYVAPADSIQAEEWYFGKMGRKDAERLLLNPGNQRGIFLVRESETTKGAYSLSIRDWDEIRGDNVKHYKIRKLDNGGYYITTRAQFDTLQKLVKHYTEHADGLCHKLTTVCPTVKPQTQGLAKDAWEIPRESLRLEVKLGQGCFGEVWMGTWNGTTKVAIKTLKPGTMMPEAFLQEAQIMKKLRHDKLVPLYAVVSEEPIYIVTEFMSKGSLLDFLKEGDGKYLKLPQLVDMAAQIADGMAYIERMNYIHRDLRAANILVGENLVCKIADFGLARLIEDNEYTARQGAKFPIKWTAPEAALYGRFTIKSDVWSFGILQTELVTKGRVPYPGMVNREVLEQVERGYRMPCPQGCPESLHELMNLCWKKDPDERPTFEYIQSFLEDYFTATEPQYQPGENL
In short: as §1

TAOK2 = TAOK2 (Homo sapiens, UniProt Q9UL54)
Sequence of TAOK2 (Q9UL54 whole entry): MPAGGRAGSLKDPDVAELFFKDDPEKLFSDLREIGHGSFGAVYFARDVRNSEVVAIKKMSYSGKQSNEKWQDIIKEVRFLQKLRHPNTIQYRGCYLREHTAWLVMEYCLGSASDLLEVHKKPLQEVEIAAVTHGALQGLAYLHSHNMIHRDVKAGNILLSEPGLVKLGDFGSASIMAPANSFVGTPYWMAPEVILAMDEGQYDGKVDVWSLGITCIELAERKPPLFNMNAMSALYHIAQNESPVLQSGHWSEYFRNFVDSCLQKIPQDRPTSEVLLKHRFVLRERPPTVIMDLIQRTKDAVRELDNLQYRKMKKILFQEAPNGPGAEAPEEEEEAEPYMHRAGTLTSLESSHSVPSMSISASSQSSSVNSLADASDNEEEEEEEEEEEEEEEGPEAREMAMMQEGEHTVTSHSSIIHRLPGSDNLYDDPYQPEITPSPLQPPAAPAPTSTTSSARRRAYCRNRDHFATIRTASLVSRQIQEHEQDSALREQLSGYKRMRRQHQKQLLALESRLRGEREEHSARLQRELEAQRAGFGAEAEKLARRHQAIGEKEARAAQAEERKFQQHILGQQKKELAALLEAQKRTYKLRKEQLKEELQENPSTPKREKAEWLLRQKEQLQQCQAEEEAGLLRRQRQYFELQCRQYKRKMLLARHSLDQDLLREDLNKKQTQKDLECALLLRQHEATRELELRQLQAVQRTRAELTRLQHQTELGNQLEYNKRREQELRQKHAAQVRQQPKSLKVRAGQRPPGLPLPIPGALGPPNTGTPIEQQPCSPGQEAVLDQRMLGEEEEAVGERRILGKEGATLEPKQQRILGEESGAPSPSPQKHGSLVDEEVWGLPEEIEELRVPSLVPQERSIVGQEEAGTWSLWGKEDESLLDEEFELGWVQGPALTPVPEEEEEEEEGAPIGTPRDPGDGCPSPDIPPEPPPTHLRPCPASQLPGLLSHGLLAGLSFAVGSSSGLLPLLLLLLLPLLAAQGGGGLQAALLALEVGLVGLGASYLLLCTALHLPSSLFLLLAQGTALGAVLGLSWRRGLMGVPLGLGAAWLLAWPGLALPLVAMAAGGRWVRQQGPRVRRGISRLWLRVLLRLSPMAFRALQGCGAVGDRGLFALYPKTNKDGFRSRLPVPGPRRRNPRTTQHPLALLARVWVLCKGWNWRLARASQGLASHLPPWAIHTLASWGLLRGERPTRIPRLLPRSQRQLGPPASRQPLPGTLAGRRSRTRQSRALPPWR
In short: as §1

TRKB = target: T2, TRKB (Homo sapiens, UniProt Q16620)
T2 construct: gene NTRK2
T2 sequence (Q16620 whole entry): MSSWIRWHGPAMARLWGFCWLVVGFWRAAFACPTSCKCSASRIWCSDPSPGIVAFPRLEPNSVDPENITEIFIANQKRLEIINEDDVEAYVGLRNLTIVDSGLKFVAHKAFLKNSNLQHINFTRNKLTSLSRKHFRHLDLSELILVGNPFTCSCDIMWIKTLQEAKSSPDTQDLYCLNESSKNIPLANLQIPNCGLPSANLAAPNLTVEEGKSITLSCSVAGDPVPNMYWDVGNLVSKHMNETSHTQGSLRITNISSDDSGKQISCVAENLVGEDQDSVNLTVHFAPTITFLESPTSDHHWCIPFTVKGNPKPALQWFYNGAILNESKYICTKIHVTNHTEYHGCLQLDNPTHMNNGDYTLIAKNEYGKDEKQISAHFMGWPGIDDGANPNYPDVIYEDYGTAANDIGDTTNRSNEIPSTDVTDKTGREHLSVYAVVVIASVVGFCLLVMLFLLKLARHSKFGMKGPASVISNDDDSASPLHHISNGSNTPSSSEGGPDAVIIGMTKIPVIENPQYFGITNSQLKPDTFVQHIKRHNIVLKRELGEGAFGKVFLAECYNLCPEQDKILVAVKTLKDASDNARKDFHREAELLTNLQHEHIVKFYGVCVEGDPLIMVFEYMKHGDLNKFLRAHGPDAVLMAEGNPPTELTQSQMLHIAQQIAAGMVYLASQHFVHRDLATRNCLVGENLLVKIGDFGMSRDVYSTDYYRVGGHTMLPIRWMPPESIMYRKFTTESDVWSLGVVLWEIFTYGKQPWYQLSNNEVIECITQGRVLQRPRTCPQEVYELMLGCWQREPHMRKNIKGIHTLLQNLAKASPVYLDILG
In short: as §1

CAMK1G = CAMK1G (Homo sapiens, UniProt Q96NX5)
Sequence of CAMK1G (Q96NX5 whole entry): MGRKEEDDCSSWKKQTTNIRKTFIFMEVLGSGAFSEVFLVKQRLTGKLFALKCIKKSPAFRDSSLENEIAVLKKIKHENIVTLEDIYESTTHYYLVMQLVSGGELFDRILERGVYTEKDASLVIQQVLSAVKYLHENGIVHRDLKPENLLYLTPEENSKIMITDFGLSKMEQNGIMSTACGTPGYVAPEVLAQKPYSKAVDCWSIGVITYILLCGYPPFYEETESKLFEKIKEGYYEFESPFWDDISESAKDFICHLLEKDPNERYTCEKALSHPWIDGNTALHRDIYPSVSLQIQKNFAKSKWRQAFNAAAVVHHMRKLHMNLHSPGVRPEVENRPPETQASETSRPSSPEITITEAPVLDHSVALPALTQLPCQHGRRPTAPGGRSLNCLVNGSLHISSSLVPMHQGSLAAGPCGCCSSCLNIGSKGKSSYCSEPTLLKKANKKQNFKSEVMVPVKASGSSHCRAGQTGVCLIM
In short: as §1

ABL1-phosphorylated = target: T3, ABL1-phosphorylated (Homo sapiens, UniProt P00519)
T3 construct: phosphorylated
In short: as §1

[1] = target: T4, RSK2(Kin.Dom.1-N-terminal) (Homo sapiens, UniProt P51812)
T4 construct: gene RPS6KA3; Kin.Dom.1-N-terminal
In short: as §1

TNK1 = TNK1 (Homo sapiens, UniProt Q13470)
In short: as §1

ROCK2 = ROCK2 (Homo sapiens, UniProt O75116)
In short: as §1

RET(V804M) = RET(V804M) (Homo sapiens, UniProt P07949, V804M)
Sequence of RET(V804M) (P07949 whole entry V804M): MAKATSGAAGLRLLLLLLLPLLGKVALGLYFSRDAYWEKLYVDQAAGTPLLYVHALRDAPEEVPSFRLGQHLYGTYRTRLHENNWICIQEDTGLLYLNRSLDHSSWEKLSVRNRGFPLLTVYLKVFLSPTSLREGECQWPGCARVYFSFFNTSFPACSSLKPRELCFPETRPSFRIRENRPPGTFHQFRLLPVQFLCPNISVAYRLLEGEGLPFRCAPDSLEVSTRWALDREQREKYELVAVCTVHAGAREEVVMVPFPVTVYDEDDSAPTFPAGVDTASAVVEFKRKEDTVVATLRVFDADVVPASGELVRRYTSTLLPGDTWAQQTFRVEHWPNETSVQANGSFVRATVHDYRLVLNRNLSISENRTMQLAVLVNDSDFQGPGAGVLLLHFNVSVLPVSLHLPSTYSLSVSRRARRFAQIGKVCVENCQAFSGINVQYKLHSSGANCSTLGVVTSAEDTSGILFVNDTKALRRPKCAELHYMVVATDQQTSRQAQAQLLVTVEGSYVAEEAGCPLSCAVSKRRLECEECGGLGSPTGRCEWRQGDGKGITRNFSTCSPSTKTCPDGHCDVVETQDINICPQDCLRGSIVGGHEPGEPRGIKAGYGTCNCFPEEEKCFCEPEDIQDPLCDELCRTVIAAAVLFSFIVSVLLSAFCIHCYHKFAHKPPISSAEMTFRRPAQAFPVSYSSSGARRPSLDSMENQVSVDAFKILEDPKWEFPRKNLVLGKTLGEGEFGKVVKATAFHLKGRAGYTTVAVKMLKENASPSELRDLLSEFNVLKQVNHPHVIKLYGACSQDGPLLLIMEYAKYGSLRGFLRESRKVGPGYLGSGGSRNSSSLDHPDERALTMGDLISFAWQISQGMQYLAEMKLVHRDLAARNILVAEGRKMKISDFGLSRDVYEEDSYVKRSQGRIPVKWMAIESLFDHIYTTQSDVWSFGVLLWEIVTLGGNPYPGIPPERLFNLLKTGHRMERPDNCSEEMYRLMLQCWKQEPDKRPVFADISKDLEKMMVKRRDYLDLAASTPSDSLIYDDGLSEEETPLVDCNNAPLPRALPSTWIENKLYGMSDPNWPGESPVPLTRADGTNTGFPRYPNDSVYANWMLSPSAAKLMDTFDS
In short: as §1

MAST1 = MAST1 (Homo sapiens, UniProt Q9Y2H9)
In short: as §1

[2] = target: T5, ABL1(H396P)-phosphorylated (Homo sapiens, UniProt P00519, H396P)
T5 construct: phosphorylated
In short: as §1

TNNI3K = TNNI3K (Homo sapiens, UniProt Q59H18)
Sequence of TNNI3K (Q59H18 whole entry): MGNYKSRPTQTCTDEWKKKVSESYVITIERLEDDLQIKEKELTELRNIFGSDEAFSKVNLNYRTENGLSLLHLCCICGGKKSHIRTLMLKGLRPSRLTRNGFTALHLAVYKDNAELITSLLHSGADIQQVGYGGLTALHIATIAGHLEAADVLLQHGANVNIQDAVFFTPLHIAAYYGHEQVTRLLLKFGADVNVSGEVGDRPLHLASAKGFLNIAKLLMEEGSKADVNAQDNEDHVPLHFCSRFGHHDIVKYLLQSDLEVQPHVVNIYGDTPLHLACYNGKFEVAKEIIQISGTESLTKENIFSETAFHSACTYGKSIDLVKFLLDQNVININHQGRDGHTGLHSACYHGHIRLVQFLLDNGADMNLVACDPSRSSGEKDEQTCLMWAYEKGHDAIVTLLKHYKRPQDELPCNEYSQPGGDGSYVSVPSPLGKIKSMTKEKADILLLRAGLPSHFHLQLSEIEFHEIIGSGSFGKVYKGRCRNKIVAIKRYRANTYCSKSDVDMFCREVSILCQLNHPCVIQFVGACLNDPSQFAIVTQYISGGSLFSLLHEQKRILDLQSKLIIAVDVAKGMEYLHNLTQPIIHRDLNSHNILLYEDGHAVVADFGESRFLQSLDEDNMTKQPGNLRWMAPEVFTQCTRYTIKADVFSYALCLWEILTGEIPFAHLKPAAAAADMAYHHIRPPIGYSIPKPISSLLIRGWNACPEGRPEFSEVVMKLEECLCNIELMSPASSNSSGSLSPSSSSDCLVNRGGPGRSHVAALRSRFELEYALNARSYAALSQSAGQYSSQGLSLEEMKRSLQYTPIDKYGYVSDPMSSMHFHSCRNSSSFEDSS
In short: as §1

CSNK1G1 = CSNK1G1 (Homo sapiens, UniProt Q9HCP0)
In short: as §1

NEK10 = NEK10 (Homo sapiens, UniProt Q6ZWH5)
In short: as §1

DRAK2 = target: T6, DRAK2 (Homo sapiens, UniProt O94768)
T6 construct: gene STK17B
In short: as §1

MLK1 = target: T7, MLK1 (Homo sapiens, UniProt P80192)
T7 construct: gene MAP3K9
In short: as §1

MARK3 = MARK3 (Homo sapiens, UniProt P27448)
In short: as §1

FRK = FRK (Homo sapiens, UniProt P42685)
In short: as §1

PIK3CA = PIK3CA (Homo sapiens, UniProt P42336)
In short: as §1

YSK1 = target: T8, YSK1 (Homo sapiens, UniProt O00506)
T8 construct: gene STK25
In short: as §1

CAMK1D = CAMK1D (Homo sapiens, UniProt Q8IU85)
In short: as §1

## O=C(/C=C/c1cnccc1-c1ccc(F)cc1)Nc1ccc(CCc2nnco2)cc1 [T-418, (2E)-3-(4-(4-fluorophenyl)pyridin-3-yl)-N-(4-(2-(1,3,4-oxadiazol-2-yl)ethyl)phenyl)acrylamide]
DAPK3; sheet T-418
  remaining binding at 0.3 µM: 83%
YES; sheet T-418
  remaining binding at 0.3 µM: 100%
TAOK2; sheet T-418
  remaining binding at 0.3 µM: 100%
TRKB; sheet T-418
  remaining binding at 0.3 µM: 100%
CAMK1G; sheet T-418
  remaining binding at 0.3 µM: 100%
ABL1-phosphorylated; sheet T-418
  remaining binding at 0.3 µM: 89%
[1]; sheet T-418
  remaining binding at 0.3 µM: 100%
TNK1; sheet T-418
  remaining binding at 0.3 µM: 87%
ROCK2; sheet T-418
  remaining binding at 0.3 µM: 92%
RET(V804M); sheet T-418
  remaining binding at 0.3 µM: 100%
MAST1; sheet T-418
  remaining binding at 0.3 µM: 100%
[2]; sheet T-418
  remaining binding at 0.3 µM: 96%
TNNI3K; sheet T-418
  remaining binding at 0.3 µM: 100%
CSNK1G1; sheet T-418
  remaining binding at 0.3 µM: 97%
NEK10; sheet T-418
  remaining binding at 0.3 µM: 100%
DRAK2; sheet T-418
  remaining binding at 0.3 µM: 94%
MLK1; sheet T-418
  remaining binding at 0.3 µM: 100%
MARK3; sheet T-418
  remaining binding at 0.3 µM: 80%
FRK; sheet T-418
  remaining binding at 0.3 µM: 97%
PIK3CA; sheet T-418
  remaining binding at 0.3 µM: 84%
YSK1; sheet T-418
  remaining binding at 0.3 µM: 97%
CAMK1D; sheet T-418
  remaining binding at 0.3 µM: 94%

## Cc1ncccc1Oc1sc(C(N)=O)c2c1-c1c(cnn1C)CC2 [T-474, 1-methyl-8-((2-methylpyridin-3-yl)oxy)-4,5-dihydro-1H-thieno[3,4-g]indazole-6-carboxamide]
DAPK3
  remaining binding at 0.3 µM: 100%
YES
  remaining binding at 0.3 µM: 100%
TAOK2
  remaining binding at 0.3 µM: 100%
TRKB
  remaining binding at 0.3 µM: 92%
CAMK1G
  remaining binding at 0.3 µM: 100%
ABL1-phosphorylated
  remaining binding at 0.3 µM: 100%
[1]
  remaining binding at 0.3 µM: 100%
TNK1
  remaining binding at 0.3 µM: 98%
ROCK2
  remaining binding at 0.3 µM: 81%
RET(V804M)
  remaining binding at 0.3 µM: 100%
MAST1
  remaining binding at 0.3 µM: 100%
[2]
  remaining binding at 0.3 µM: 100%
TNNI3K
  remaining binding at 0.3 µM: 95%
CSNK1G1
  remaining binding at 0.3 µM: 79%
NEK10
  remaining binding at 0.3 µM: 100%
DRAK2
  remaining binding at 0.3 µM: 100%
MLK1
  remaining binding at 0.3 µM: 100%
MARK3
  remaining binding at 0.3 µM: 88%
FRK
  remaining binding at 0.3 µM: 97%
PIK3CA
  remaining binding at 0.3 µM: 92%
YSK1
  remaining binding at 0.3 µM: 94%
CAMK1D
  remaining binding at 0.3 µM: 79%
